Assay results reported in PubChem BioAssay AID1259407 (Chemical Carcinogenesis Research Information System (CCRIS), 2018).
The source made the active and inactive calls. No rule for the calls is given here.

Test system: CCRIS mutagenicity, Ames/micronucleus/aberration tests
Assay: CCRIS mutagenicity studies

Measured: mutagenic call

C[Si](C)(Cl)Cl
inactive: Test System: AMES SALMONELLA TYPHIMURIUM, Strain/Indicator: TA98, Metabolic Activation: HAMSTER, LIVER, S-9, AROCLOR 1254, Method: PREINCUBATION inactive; negative | Test System: AMES SALMONELLA TYPHIMURIUM, Strain/Indicator: TA98, Metabolic Activation: NONE, Method: PREINCUBATION inactive; negative | Test System: AMES SALMONELLA TYPHIMURIUM, Strain/Indicator: TA98, Metabolic Activation: NONE, Method: STANDARD PLATE inactive; negative | Test System: AMES SALMONELLA TYPHIMURIUM, Strain/Indicator: TA98, Metabolic Activation: RAT LIVER S-9, AROCLOR 1254, Method: STANDARD PLATE inactive; negative | Test System: AMES SALMONELLA TYPHIMURIUM, Strain/Indicator: TA98, Metabolic Activation: RAT, LIVER, S-9, AROCLOR 1254, Method: PREINCUBATION inactive; negative | Test System: AMES SALMONELLA TYPHIMURIUM, Strain/Indicator: TA100, Metabolic Activation: HAMSTER, LIVER, S-9, AROCLOR 1254, Method: PREINCUBATION inactive; negative | Test System: AMES SALMONELLA TYPHIMURIUM, Strain/Indicator: TA100, Metabolic Activation: NONE, Method: PREINCUBATION inactive; negative | Test System: AMES SALMONELLA TYPHIMURIUM, Strain/Indicator: TA100, Metabolic Activation: NONE, Method: STANDARD PLATE inactive; negative | Test System: AMES SALMONELLA TYPHIMURIUM, Strain/Indicator: TA100, Metabolic Activation: RAT LIVER S-9, AROCLOR 1254, Method: STANDARD PLATE inactive; negative | Test System: AMES SALMONELLA TYPHIMURIUM, Strain/Indicator: TA100, Metabolic Activation: RAT, LIVER, S-9, AROCLOR 1254, Method: PREINCUBATION inactive; negative | Test System: AMES SALMONELLA TYPHIMURIUM, Strain/Indicator: TA1535, Metabolic Activation: HAMSTER, LIVER, S-9, AROCLOR 1254, Method: PREINCUBATION inactive; negative | Test System: AMES SALMONELLA TYPHIMURIUM, Strain/Indicator: TA1535, Metabolic Activation: NONE, Method: PREINCUBATION inactive; negative | Test System: AMES SALMONELLA TYPHIMURIUM, Strain/Indicator: TA1535, Metabolic Activation: NONE, Method: STANDARD PLATE inactive; negative | Test System: AMES SALMONELLA TYPHIMURIUM, Strain/Indicator: TA1535, Metabolic Activation: RAT LIVER S-9, AROCLOR 1254, Method: STANDARD PLATE inactive; negative | Test System: AMES SALMONELLA TYPHIMURIUM, Strain/Indicator: TA1535, Metabolic Activation: RAT, LIVER, S-9, AROCLOR 1254, Method: PREINCUBATION inactive; negative | Test System: AMES SALMONELLA TYPHIMURIUM, Strain/Indicator: TA1537, Metabolic Activation: HAMSTER, LIVER, S-9, AROCLOR 1254, Method: PREINCUBATION inactive; negative | Test System: AMES SALMONELLA TYPHIMURIUM, Strain/Indicator: TA1537, Metabolic Activation: NONE, Method: PREINCUBATION inactive; negative | Test System: AMES SALMONELLA TYPHIMURIUM, Strain/Indicator: TA1537, Metabolic Activation: NONE, Method: STANDARD PLATE inactive; negative | Test System: AMES SALMONELLA TYPHIMURIUM, Strain/Indicator: TA1537, Metabolic Activation: RAT LIVER S-9, AROCLOR 1254, Method: STANDARD PLATE inactive; negative | Test System: AMES SALMONELLA TYPHIMURIUM, Strain/Indicator: TA1537, Metabolic Activation: RAT, LIVER, S-9, AROCLOR 1254, Method: PREINCUBATION inactive; negative | Test System: AMES SALMONELLA TYPHIMURIUM, Strain/Indicator: TA1538, Metabolic Activation: HAMSTER, LIVER, S-9, AROCLOR 1254, Method: PREINCUBATION inactive; negative | Test System: AMES SALMONELLA TYPHIMURIUM, Strain/Indicator: TA1538, Metabolic Activation: NONE, Method: PREINCUBATION inactive; negative | Test System: AMES SALMONELLA TYPHIMURIUM, Strain/Indicator: TA1538, Metabolic Activation: NONE, Method: STANDARD PLATE inactive; negative | Test System: AMES SALMONELLA TYPHIMURIUM, Strain/Indicator: TA1538, Metabolic Activation: RAT LIVER S-9, AROCLOR 1254, Method: STANDARD PLATE inactive; negative | Test System: AMES SALMONELLA TYPHIMURIUM, Strain/Indicator: TA1538, Metabolic Activation: RAT, LIVER, S-9, AROCLOR 1254, Method: PREINCUBATION inactive; negative | Test System: E. COLI, Strain/Indicator: P3078(POL A-), Metabolic Activation: NONE, Method: SPOT TEST inactive; negative | Test System: E. COLI, Strain/Indicator: P3078 POLA, Metabolic Activation: RAT LIVER S-9, AROCLOR 1254, Method: SPOT TEST inactive; negative | Test System: E. COLI, Strain/Indicator: W3110, Metabolic Activation: NONE, Method: SPOT TEST inactive; negative | Test System: E. COLI, Strain/Indicator: W3110, Metabolic Activation: RAT LIVER S-9, AROCLOR 1254, Method: SPOT TEST inactive; negative | Test System: MOUSE LYMPHOMA, Strain/Indicator: L5178Y (TK+/TK-), Metabolic Activation: RAT, LIVER, S-9, AROCLOR 1254, Method: SUSPENSION/PLATE inactive; negative. reevaluation of results: inconclusive | Test System: MOUSE LYMPHOMA, Strain/Indicator: L5178Y (TK+/TK-), Metabolic Activation: RAT, LIVER, S-9, Method: SUSPENSION/PLATE inactive; negative
